From PubChem BioAssay (NCI) come the findings set out here.

SMILES strings stand for the structures.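 Briefly, cells in 96-well plates were exposed to five compound concentrations for 48 h, and endpoints were estimated by linear interpolation. GI50: concentration for 50% inhibition of growth. The concentration for full growth arrest is given as TGI.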

What all share (test): DTP human tumour cell line panel, 48 h
The test system of test [1] is KM20L2 colon.
Test [2] has as its system RXF 393 renal.
Test [3] relates to DMS 273 small cell lung.
Test [4] deals with XF 498 CNS.
For test [5], the system named is LXFL 529 NSCLC.
The subject of test [6] is HOP-18 NSCLC.
Test [7] concerns DMS 114 small cell lung.
For test [8], the system named is DLD-1 colon.

By GI50 is commonly meant the concentration giving 50% growth inhibition. By TGI is commonly meant the concentration at which net growth stops. Higher therefore signals lower sensitivity of the cells. In the case of `COc1ccc(/C(=N\NC(=S)NN)C(c2ccc(OC)cc2)C2C(=O)Oc3ccccc32)cc1` (configuration not stated), the GI50 in test [1], in test [2], in test [3], in test [4], in test [6] and in test [8] was over 100 µM each time. The TGI in test [1], in test [2], in test [3], in test [4], in test [5] and in test [6] was over 100 µM throughout. Also, the TGI in test [7] and in test [8] was over 100 µM in each case.

Take `CC(=O)N1CCC2(c3ccccc3N(C(C)=O)C2c2ccc(O)cc2)C1C(=O)O` (configuration not stated): the TGI in test [1], in test [2], in test [3], in test [4], in test [5] and in test [6] was over 100 µM throughout. The TGI in test [7] and in test [8] was over 100 µM in each case.

With `O=[N+]([O-])c1ccc(Sc2c3ccccc3nc3cc(Cl)ccc23)cc1`, the GI50 in test [1], in test [5], in test [6], in test [7] and in test [8] was over 100 µM throughout. The TGI in test [1] was over 100 µM; in test [2], over 100 µM; in test [3], over 1 µM; in test [4], 99.6 µM; in test [5] it was over 100 µM; in test [6] it was over 100 µM. For the same molecule, the TGI in test [7] and in test [8] was over 100 µM throughout.

As to `CN(C)C(=S)/N=c1\ssc(=S)n1Cc1ccncc1`, the TGI was over 100 µM in test [1]; 70 µM in test [2]; 76.3 µM in test [3]; 24.9 µM in test [4]; 82.1 µM in test [5]; 57.6 µM in test [6]. The TGI is 7.77 µM in test [7] and 47.4 µM in test [8].

As for `CCCCN(CC)CC(C(C)=O)c1c(O)c2ccccc2oc1=O` (configuration not stated), the TGI in test [1], in test [2], in test [3], in test [4], in test [5] and in test [6] was over 100 µM throughout. For the same molecule, the TGI in test [7] and in test [8] was over 100 µM throughout.

In the case of `C=CC(OCC)(OCC)OCC`, the TGI in test [1] is over 100 µM; in test [2] it was over 100 µM; in test [3], 37.9 µM; in test [4] it was over 100 µM; in test [5], over 100 µM; in test [6] it was over 100 µM. Also, the TGI in test [7] was 31.2 µM; in test [8], over 100 µM.

In the case of `C/C(=N/NC(=O)C[N+](C)(C)C)C(CN(C)C)C(=O)Nc1ccccc1` (configuration not stated), the TGI in test [1], in test [2], in test [3], in test [4], in test [5] and in test [6] was over 100 µM throughout. The TGI in test [7] and in test [8] was over 100 µM throughout.
